According to US20250074892A1, “CARBONYL BRIDGED HETEROCYCLIC COMPOUND, AND COMPOSITION AND APPLICATION THEREOF” (BEIJING SCITECH-MQ PHARMACEUTICALS LIMITED, priority 2022, published 2025):

What was measured:
HT29 cells = assay: Inhibition of cell necrosis (CCK8 method), HT29 cells; type: cell-based, human; conditions: Homo sapiens, HT-29, 16 h, HT29, Human TNF-α/AT-406/Z-VAD-FMK, 16 hours, CCK8
Procedure: (§1) In this assay example 2, under the condition of inducing programmed cell necrosis of HT29 and L929 cell lines, different concentrations of the test compounds were added to test the IC50 of the rescue effect of the test compounds on the programmed necrosis.
(§2) • Compounds: dissolved in DMSO to make a 10 mM solution; • TNF-α: initial concentration of 100 µg/mL; • Z-VAD-FMK: dissolved in DMSO to make a 10 mM solution; • AT-406: dissolved in DMSO to make a 10 mM solution. • Cell lines: HT29 cells were cultured in McCoy's 5A medium containing 10% fetal bovine serum, 100 U/mL penicillin, and 100 µg/mL streptomycin, and L929 cells were cultured in MEM medium containing 10% horse serum, 100 U/mL penicillin, and 100 µg/mL streptomycin.
(§3) 1. The test compound was dissolved in DMSO to form a stock solution, and a gradient dilution was performed; the solution was then diluted with the corresponding culture medium to obtain a solution with 10 times the working concentration.
(§4) 2. The cells in the logarithmic growth phase were diluted with culture medium to a specific cell concentration. 80 µL of the cell suspension was added to a 96-well plate, so that the cell densities of HT29 and L929 were 1.2*10^4 cells/well and 2.0*10^4 cells/well, respectively. The plate was cultured in a 37° C., 5% carbon dioxide incubator overnight.
(§5) 3. […] of the compound solution was added to each well of the 96-well plate inoculated with cells. The compounds to be tested were serially diluted 4-fold to obtain 9 concentrations in duplicate, starting from a maximum concentration of 10 μM. At the same time, a control group without compound addition was set up.
(§6) 4. After the cells were cultured for another 30 minutes, 10 μL of the inducer mixture was added to each well. The final concentrations of Human TNF-α, AT-406 and Z-VAD-FMK in HT29 cells were 20 ng/mL, […] and 20 μM, respectively; and the final concentrations of Murine TNF-α and Z-VAD-FMK in L929 cells were 20 ng/mL and 25 μM, respectively.
(§7) 5. The 96-well plate in which compounds and inducer were added was placed in a 37° C., 5% carbon dioxide incubator for further culture, wherein HT29 cells were cultured for 16 hours and L929 cells were cultured for 4-8 hours. Cell viability was detected by CCK8. GraphPad Prism software was used to prepare a dose-effect curve and IC50 was calculated.

L929 cells = assay: Inhibition of cell necrosis (CCK8 method), L929 cells; type: cell-based, mouse; conditions: 4-8 hours, CCK8
Procedure: as §1, §2, §3, §4, §5, §6, §7

[1] = Mus musculus, L929, L929, Murine TNF-α/Z-VAD-FMK

Row | Compound | IC50 (HT29 cells) [µM] | IC50 (L929 cells; [1]) [µM] | IC50 (L929 cells; L929, Murine TNF-α/Z-VAD-FMK) [µM]
1 | CC(C)(O)CCOc1ccc(F)c(-c2ccnc(N3CCC(C(=O)N4N=CCC4c4cc(F)cc(F)c4)CC3)c2)c1 (racemic) [Example 21, (5-(3,5-difluorophenyl)-4,5-dihydro-1H-pyrazol-1-yl)(1-(4-(2-fluoro-5-(3-hydroxy-3-methylbutoxy)phenyl)pyridin-2-yl)piperidin-4-yl)methanone] | ≤ 0.01 | 0.01 to 0.05 | 
2 | CC(C)(O)COc1ccc(F)c(-c2ccnc(N3CCC(C(=O)N4N=CCC4c4cc(F)cc(F)c4)CC3)c2)c1 (racemic) [Example 23, (5-(3,5-difluorophenyl)-4,5-dihydro-1H-pyrazol-1-yl)(1-(4-(2-fluoro-5-(2-hydroxy-2-methylpropoxy)phenyl)pyridin-2-yl)piperidin-4-yl)methanone] | ≤ 0.01 | ≤ 0.01 | 
3 | CC(C)(O)CCCOc1ccc(F)c(-c2ccnc(N3CCC(C(=O)N4N=CCC4c4cc(F)cc(F)c4)CC3)c2)c1 (racemic) [Example 24, (5-(3,5-difluorophenyl)-4,5-dihydro-1H-pyrazol-1-yl)(1-(4-(2-fluoro-5-((4-hydroxy-4-methylpentyl)oxy)phenyl)pyridin-2-yl)piperidin-4-yl)methanone] | ≤ 0.01 | 0.01 to 0.05 | 
4 | CC(C)(O)CCOc1ccc(F)c(-c2ccnc(N3CCC(C(=O)N4N=CC[C@H]4c4cc(F)cc(F)c4)CC3)c2)c1 (racemic) [Example 41] | ≤ 0.01 | 0.01 to 0.05 | 
5 | CC(C)(O)CCCOc1ccc(F)c(-c2ccnc(N3CCC(C(=O)N4N=CC[C@H]4c4cc(F)cc(F)c4)CC3)c2)c1 (racemic) [Example 43] | ≤ 0.01 | 0.01 to 0.05 | 
6 | COCCOc1cccc(-c2ccnc(N3CCC(C(=O)N4N=CCC4c4cc(F)cc(F)c4)CC3)c2)c1 (stereo not shown) [Example 1, (5-(3,5-difluorophenyl)-4,5-dihydro-1H-pyrazol-1-yl)(1-(4-(3-(2-methoxyethoxy)phenyl)pyridin-2-yl)piperidin-4-yl)methanone] | 0.01 to 0.05 | 0.05 to 0.1 | 
7 | COCCCOc1cccc(-c2ccnc(N3CCC(C(=O)N4N=CCC4c4cc(F)cc(F)c4)CC3)c2)c1 (stereo not shown) [Example 2, (5-(3,5-difluorophenyl)-4,5-dihydro-1H-pyrazol-1-yl)(1-(4-(3-(3-methoxypropoxy)phenyl)pyridin-2-yl)piperidin-4-yl)methanone] | 0.01 to 0.05 | 0.05 to 0.1 | 
8 | O=C(C1CCN(c2cc(-c3cccc(OC4CCOCC4)c3)ccn2)CC1)N1N=CCC1c1cc(F)cc(F)c1 (stereo not shown) [Example 3, (5-(3,5-difluorophenyl)-4,5-dihydro-1H-pyrazol-1-yl)(1-(4-(3-((tetrahydro-2H-pyran-4-yl)oxy)phenyl)pyridin-2-yl)piperidin-4-yl)methanone] | 0.01 to 0.05 | 0.05 to 0.1 | 
9 | COCCOc1ccc(C)c(-c2ccnc(N3CCC(C(=O)N4N=CCC4c4cc(F)cc(F)c4)CC3)c2)c1 (stereo not shown) [Example 4, (5-(3,5-difluorophenyl)-4,5-dihydro-1H-pyrazol-1-yl)(1-(4-(5-(2-methoxyethoxy)-2-methylphenyl)pyridin-2-yl)piperidin-4-yl)methanone] | 0.01 to 0.05 | 0.01 to 0.05 | 
10 | COCCCOc1ccc(C)c(-c2ccnc(N3CCC(C(=O)N4N=CCC4c4cc(F)cc(F)c4)CC3)c2)c1 (stereo not shown) [Example 5, (5-(3,5-difluorophenyl)-4,5-dihydro-1H-pyrazol-1-yl)(1-(4-(5-(3-methoxypropoxy)-2-methylphenyl)pyridin-2-yl)piperidin-4-yl)methanone] | 0.01 to 0.05 | 0.05 to 0.1 | 
11 | Cc1ccc(OC2CCOCC2)cc1-c1ccnc(N2CCC(C(=O)N3N=CCC3c3cc(F)cc(F)c3)CC2)c1 (stereo not shown) [Example 6, (5-(3,5-difluorophenyl)-4,5-dihydro-1H-pyrazol-1-yl)(1-(4-(2-methyl-5-((tetrahydro-2H-pyran-4-yl)oxy)phenyl)pyridin-2-yl)piperidin-4-yl)methanone] | 0.01 to 0.05 | 0.05 to 0.1 | 
12 | O=C(C1CCN(c2cc(-c3cccc(OCCCCO)c3)ccn2)CC1)N1N=CCC1c1cc(F)cc(F)c1 (stereo not shown) [Example 7, (5-(3,5-difluorophenyl)-4,5-dihydro-1H-pyrazol-1-yl)(1-(4-(3-(4-hydroxybutoxy)phenyl)pyridin-2-yl)piperidin-4-yl)methanone] | 0.01 to 0.05 | 0.01 to 0.05 | 
13 | CC(C)(O)CCCOc1cccc(-c2ccnc(N3CCC(C(=O)N4N=CCC4c4cc(F)cc(F)c4)CC3)c2)c1 (stereo not shown) [Example 8, (5-(3,5-difluorophenyl)-4,5-dihydro-1H-pyrazol-1-yl)(1-(4-(3-((4-hydroxy-4-methylpentyl)oxy)phenyl)pyridin-2-yl)piperidin-4-yl)methanone] | 0.01 to 0.05 | 0.01 to 0.05 | 
14 | Cc1ccc(OCCCCO)cc1-c1ccnc(N2CCC(C(=O)N3N=CCC3c3cc(F)cc(F)c3)CC2)c1 (stereo not shown) [Example 9, (5-(3,5-difluorophenyl)-4,5-dihydro-1H-pyrazol-1-yl)(1-(4-(5-(4-hydroxybutoxy)-2-methylphenyl)pyridin-2-yl)piperidin-4-yl)methanone] | 0.01 to 0.05 |  | 0.01 to 0.05
15 | Cc1ccc(OCCCC(C)(C)O)cc1-c1ccnc(N2CCC(C(=O)N3N=CCC3c3cc(F)cc(F)c3)CC2)c1 (stereo not shown) [Example 10, (5-(3,5-difluorophenyl)-4,5-dihydro-1H-pyrazol-1-yl)(1-(4-(5-((4-hydroxy-4-methylpentyl)oxy)-2-methylphenyl)pyridin-2-yl)piperidin-4-yl)methanone] | ≤ 0.01 | ≤ 0.01 | 
16 | Cc1ccc(OCCC2CCOCC2)cc1-c1ccnc(N2CCC(C(=O)N3N=CCC3c3cc(F)cc(F)c3)CC2)c1 (stereo not shown) [Example 11, (5-(3,5-difluorophenyl)-4,5-dihydro-1H-pyrazol-1-yl)(1-(4-(2-methyl-5-(2-(tetrahydro-2H-pyran-4-yl)ethoxy)phenyl)pyridin-2-yl)piperidin-4-yl)methanone] | 0.01 to 0.05 | 0.05 to 0.1 | 
17 | O=C(C1CCN(c2cc(-c3cccc(OCCCO)c3)ccn2)CC1)N1N=CCC1c1cc(F)cc(F)c1 (stereo not shown) [Example 12, (5-(3,5-difluorophenyl)-4,5-dihydro-1H-pyrazol-1-yl)(1-(4-(3-(3-hydroxypropoxy)phenyl)pyridin-2-yl)piperidin-4-yl)methanone] | ≤ 0.01 | 0.05 to 0.1 | 
18 | COCCCCOc1cccc(-c2ccnc(N3CCC(C(=O)N4N=CCC4c4cc(F)cc(F)c4)CC3)c2)c1 (stereo not shown) [Example 13, (5-(3,5-difluorophenyl)-4,5-dihydro-1H-pyrazol-1-yl)(1-(4-(3-(4-methoxybutoxy)phenyl)pyridin-2-yl)piperidin-4-yl)methanone] | 0.01 to 0.05 | 0.05 to 0.1 | 
19 | O=C(C1CCN(c2cc(-c3cccc(OCC4CCOCC4)c3)ccn2)CC1)N1N=CCC1c1cc(F)cc(F)c1 (stereo not shown) [Example 14, (5-(3,5-difluorophenyl)-4,5-dihydro-1H-pyrazol-1-yl)(1-(4-(3-((tetrahydro-2H-pyran-4-yl)methoxy)phenyl)pyridin-2-yl)piperidin-4-yl)methanone] | 0.01 to 0.05 | 0.01 to 0.05 | 
20 | Cc1ccc(OCCCO)cc1-c1ccnc(N2CCC(C(=O)N3N=CCC3c3cc(F)cc(F)c3)CC2)c1 (stereo not shown) [Example 15, (5-(3,5-difluorophenyl)-4,5-dihydro-1H-pyrazol-1-yl)(1-(4-(5-(3-hydroxypropoxy)-2-methylphenyl)pyridin-2-yl)piperidin-4-yl)methanone] | ≤ 0.01 | 0.01 to 0.05 | 
